Data published in publication PMC5517430, “2,3,7,8-Tetrachlorodibenzo-p-dioxin (TCDD)-elicited effects on bile acid homeostasis: Alterations in biosynthesis, enterohepatic circulation, and microbial metabolism” (Scientific Reports, 2017).
Where “and” joins values, the source holds several entries; their conditions need not be identical. Equal entries are not always repeated.

Assays:
[1] = set-up: method as in PMID 6138222; conditions: mice; cited from earlier work
bile acids = assay: HRAM-LC-MS analysis of bile acids in liver, serum and feces; assay type: in vivo, mouse; conditions: male mice
Procedure: Serum (10 µL) was added to 10 µL of a 20 ng/µL stock solution of deuterated (d4) glycochenodeoxycholic acid (GCDCA, from Steraloids, Inc.) in methanol, and extracted with ice-cold methanol as previously described. Frozen liver samples (50 mg) or dried fecal pellets (50 mg) were combined with 10 µL of 20 ng/µL d4-GCDCA stock solution and 1.0 mL of ice-cold methanol, and homogenized with 0.5 mm zirconium oxide beads using an air-cooled Bullet Blender (NextAdvance). Extracts were dried under vacuum, reconstituted in 2.0 mL of 50% methanol, filtered through 0.2 µm nylon membranes (Pall Life Sciences), and stored at −80 °C.
Bile acids were analyzed by high resolution/accurate mass (HRAM)-LC-MS using an Agilent 1260 capillary HPLC coupled to a Thermo Scientific LTQ-Orbitrap Velos mass spectrometer. Extracts (2 µL) were injected into water containing 0.1% formic acid, and loaded onto an inline peptide Opti-Trap (Optimize Technologies) for 3.0 min at 5 µL/min for desalting and concentration. Bile acids were then eluted by a 30 min water/acetonitrile gradient from 98% water containing 0.1% formic acid to 95% acetonitrile containing 0.1% formic acid (modified from ref. [73]) and separated by a ProntoSil C18AQ 200 µm × 50 mm, 3 u column (nanoLCMS Solutions) at a flow rate of 2 µL/min. The column eluent was introduced to the LTQ-Orbitrap Velos mass spectrometer by an Advance nano-ESI source (Michrom BioResources) at a spray voltage of −1.7 kV. High resolution (R = 100,000 at 400 m/z) negative ion mass spectra were collected over 300–900 m/z. The ion transfer tube of the mass spectrometer was maintained at 250 °C, and the S-lens was set to 50%. Appropriate sample dilution factors were determined empirically to ensure a linear range of detector response. Chromatographic peak alignment, feature detection, quantitation and bile acid identification were performed using MAVEN[75] and SECD-LIMSA[76] software. All bile acids were identified by comparison of retention time and accurate mass data against reference standards. Relative quantitation was performed against the deuterated GCDCA internal standard. TCDD-elicited changes in bile acid species are reported as fold changes relative to vehicle controls.

liver of C57BL/6 mice = assay: QuHAnT quantitation of Oil Red O staining (hepatic fat accumulation); assay type: in vivo, mouse; conditions: 30 µg/kg TCDD every 4 d for 28 d
Procedure: All processing was performed by the MSU Investigative Histopathology Laboratory (https://humanpathology.natsci.msu.edu/). Formalin-fixed hepatic tissues were vacuum infiltrated with paraffin using a Tissue-Tek VIP 2000 tissue processor (Sakura) and embedded with the Thermo Fisher HistoCentre III Embedding Center (Thermo Fisher, Waltham, Massachusetts). Paraffin blocks were sectioned at 4–5 µm with a Reichert Jung 2030 rotary microtome (Reichert, Depew, New York) and dried for 2–24 h at 56 °C to ensure adherence to the slides. For lipid staining, liver sections frozen in O.C.T. compound were sectioned at 6 µm, fixed in 10% NBF for 5 min, rinsed with water, and immersed in 100% propylene glycol for 5 min. Liver sections were stained with hematoxylin and eosin (H&E) for general histological assessment. Lipids were stained using Oil Red O (ORO) as previously described. […]
Quantitation of ORO staining was performed using the Quantitative Histological Analysis Tool (QuHAnT)[66]. […] Using ImageJ (http://rsb.info.nih.gov.ij/), optimal hue, saturation, and value (HSV) image segmentation thresholds for feature extraction were determined to be 0 to 50 and 225 to 255 (hue), 125 to 255 (saturation), and 0 to 255 (value), while optimal total tissue feature extraction thresholds were 0 to 255 (hue), 20 to 255 (saturation), and 0 to 255 (value). […]

[2] = test system: gallbladder of male C57BL/6 mice; assay: Gallbladder volume (micro-caliper, ellipsoid); assay type: in vivo, mouse; conditions: 30 µg/kg TCDD every 4 d for 28 d
Procedure: At 25d after the initial dose (PND53), fecal pellets from the previous 24 hours (h) were collected from each cage (4 mice per cage) and stored at −80 °C. At 28d after the initial exposure (PND56), mice (fasted for 6 h) were weighed and blood was collected from the submandibular vein prior to cervical dislocation. The gallbladder length, width, and depth were measured using a micro-caliper. Its volume was calculated assuming an ellipsoid shape: volume (µL) = length (mm) × width (mm) × depth (mm) × π/6[63], [64]. The distal ileum (10 cm section extending from the caecum toward the jejunum) was removed, flushed with Ca^2+/Mg^2+-free phosphate buffered saline (PBS; Sigma), and opened longitudinally. The epithelial lining was scraped into a vial containing TRIzol (Invitrogen, Carlsbad, CA), frozen in liquid nitrogen, and stored at −80 °C. Liver, gonadal white adipose tissue (gWAT), and brown adipose tissue were removed, weighed, frozen in liquid nitrogen, and stored at −80 °C. Serum alkaline phosphatase (ALP) activity was determined using a commercial kit (Pointe Scientific, Canton, MI).

[3] = liver, 10 µg/kg TCDD every 4 d for 28 d, relative to vehicle
[4] = liver, 30 µg/kg TCDD every 4 d for 28 d, relative to vehicle
[5] = liver, dose not stated, 3–30 µg/kg TCDD
[6] = liver, dose-dependent, 3–30 µg/kg TCDD
[7] = serum, 30 µg/kg TCDD every 4 d for 28 d, relative to vehicle

**Q.** Which results are given for `Clc1cc2c(cc1Cl)Oc1cc(Cl)c(Cl)cc1O2` [TCDD, 2,3,7,8-tetrachlorodibenzo-p-dioxin]?
**A.** Half-life [1]: 190 to 288 h; Deoxycholic acid disulfate DCA-di-SO4, Fold Change FECES (bile acids; feces, 30 µg/kg TCDD, relative to vehicle, n = 2 cages): 4.9 fold; Taurolithocholic acid TLCA, Fold Change FECES (bile acids; feces, 30 µg/kg TCDD, relative to vehicle, n = 2 cages, ∞ = detected in treated animals but not controls): undetectable in controls to detectable in treated mice; Fecal cholic acid 7-sulfate (CA-7-SO4), fold decrease (bile acids; feces, 30 µg/kg TCDD): 55.2 fold; Fecal taurocholic acid 3-sulfate (TCA-3-SO4), fold decrease (bile acids; feces, 30 µg/kg TCDD): 10.3 fold; Fecal α-MCA, fold decrease (bile acids; feces, 30 µg/kg TCDD): 10.3 fold; Total fecal bile acids, fold decrease (bile acids; feces, 30 µg/kg TCDD): 2.8 fold; Taurolithocholic acid TLCA, Fold Change LIVER (bile acids; [3]): 72.1 fold; Total Bile Acids, Fold Change LIVER (bile acids; [3]): 2.1 fold; Cholic acid CA, Fold Change LIVER (bile acids; [4]): 4.7 fold; Taurolithocholic acid TLCA, Fold Change LIVER (bile acids; [4]): > 200 fold and 233.8 fold; Total Bile Acids, Fold Change LIVER (bile acids; [4]): 4.6 fold; Effect on hepatic CDCA (bile acids; liver, 3–30 µg/kg TCDD): no effect; Effect on hepatic α/β-MCA (bile acids; liver, 3–30 µg/kg TCDD): no effect; Hepatic glycocholic acid (GCA), fold increase (bile acids; [5]): 3.9 fold; Hepatic tauro-α-muricholic acid (T-α-MCA), fold increase (bile acids; [5]): 3.7 fold; Hepatic taurocholic acid (TCA), fold increase (bile acids; [5]): 9.7 fold; Total hepatic conjugated primary bile acid levels, max fold increase (bile acids; [6]): 4.7 fold; Total hepatic levels of conjugated secondary bile acids, max fold increase (bile acids; [6]): 77.7 fold; Cholic acid CA, Fold Change SERUM (bile acids; [7]): 58.2 fold; Deoxycholic acid DCA, Fold Change SERUM (bile acids; [7]): 79.7 fold; Glycocholic acid GCA, Fold Change SERUM (bile acids; [7]): 134.4 fold; Muricholic acid (α) α-MCA, Fold Change SERUM (bile acids; [7]): 97.0 fold; Muricholic acid (β) β-MCA, Fold Change SERUM (bile acids; [7]): 52.8 fold; Taurocholic acid TCA, Fold Change SERUM (bile acids; [7]): 298.9 fold; Total Bile Acids, Fold Change SERUM (bile acids; [7]): 45.4 fold; Hepatic fat accumulation (ORO), males compared to females (liver of C57BL/6 mice): 6.2 fold; Gallbladder volume, fold increase compared to controls [2]: 2.5 fold
